Measured values from article PMC7072677, “Arachidonoylcholine and Other Unsaturated Long-Chain Acylcholines Are Endogenous Modulators of the Acetylcholine Signaling System” (Biomolecules, 2020).
Entries after “also recorded” stand apart in the source; their conditions may differ. Like-named read-outs stand apart in the source and are kept apart here.

Key:
A549 lung cancer cells [1] = conditions: for decrease of A549 viability: 100 μM, 24 h incubation, MTT; for decrease of cell viability, dose-dependent, maximum: A549 lung cancer cells
A549 lung cancer cells [2] = conditions: 1 to 10 µM, predominantly after 48 and 72 h; cited from earlier work
mouse muscle nAChR = target: T1, mouse muscle nAChR (Mus musculus, UniProt P02716+P04756+P20782); experiment: Two-electrode electrophysiology, ACh-evoked current in Xenopus oocytes; format: cell-based
T1 construct: expressed in transfected cells; host or cells: Xenopus laevis oocytes, cDNA in pRBG4
T1 sequence (P04756 21-457): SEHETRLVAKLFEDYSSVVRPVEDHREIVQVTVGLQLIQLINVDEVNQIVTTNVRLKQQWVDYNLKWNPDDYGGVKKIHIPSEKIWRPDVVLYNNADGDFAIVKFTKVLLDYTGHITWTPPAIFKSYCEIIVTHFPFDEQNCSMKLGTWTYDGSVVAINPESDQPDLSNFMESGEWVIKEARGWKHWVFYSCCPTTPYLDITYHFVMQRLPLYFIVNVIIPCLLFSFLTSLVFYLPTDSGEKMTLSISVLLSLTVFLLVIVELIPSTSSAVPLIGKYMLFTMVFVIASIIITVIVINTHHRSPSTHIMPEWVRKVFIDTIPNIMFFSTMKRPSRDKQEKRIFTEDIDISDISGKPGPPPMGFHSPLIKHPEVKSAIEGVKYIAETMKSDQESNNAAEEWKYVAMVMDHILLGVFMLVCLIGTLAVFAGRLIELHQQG
T1 sequence (P09690 24-501 partner): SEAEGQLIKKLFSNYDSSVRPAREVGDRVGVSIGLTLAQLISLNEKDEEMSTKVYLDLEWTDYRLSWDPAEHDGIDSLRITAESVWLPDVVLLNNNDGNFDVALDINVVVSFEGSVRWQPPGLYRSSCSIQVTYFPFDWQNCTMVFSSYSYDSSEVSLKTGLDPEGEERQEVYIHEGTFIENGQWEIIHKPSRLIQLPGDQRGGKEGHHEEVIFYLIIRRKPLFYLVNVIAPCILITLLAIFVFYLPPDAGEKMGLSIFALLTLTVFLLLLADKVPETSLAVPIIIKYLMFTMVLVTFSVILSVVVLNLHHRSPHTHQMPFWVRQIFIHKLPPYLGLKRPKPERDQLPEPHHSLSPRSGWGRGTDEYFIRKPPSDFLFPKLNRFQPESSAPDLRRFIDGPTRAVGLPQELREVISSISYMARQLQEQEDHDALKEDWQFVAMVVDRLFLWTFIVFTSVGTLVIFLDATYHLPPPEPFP
T1 sequence (P02716 25-520): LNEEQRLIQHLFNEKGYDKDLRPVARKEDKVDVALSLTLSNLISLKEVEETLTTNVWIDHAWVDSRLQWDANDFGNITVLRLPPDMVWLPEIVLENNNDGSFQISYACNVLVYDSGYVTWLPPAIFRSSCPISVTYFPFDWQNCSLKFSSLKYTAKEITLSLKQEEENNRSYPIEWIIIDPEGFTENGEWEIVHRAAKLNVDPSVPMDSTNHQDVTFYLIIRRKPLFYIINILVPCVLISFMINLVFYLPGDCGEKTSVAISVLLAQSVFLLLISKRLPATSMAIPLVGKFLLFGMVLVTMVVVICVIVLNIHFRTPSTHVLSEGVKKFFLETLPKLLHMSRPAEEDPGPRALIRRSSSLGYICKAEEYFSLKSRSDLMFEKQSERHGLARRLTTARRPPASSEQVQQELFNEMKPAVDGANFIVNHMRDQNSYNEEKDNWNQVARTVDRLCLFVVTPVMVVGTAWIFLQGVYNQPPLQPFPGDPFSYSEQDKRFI
T1 sequence (P20782 21-493): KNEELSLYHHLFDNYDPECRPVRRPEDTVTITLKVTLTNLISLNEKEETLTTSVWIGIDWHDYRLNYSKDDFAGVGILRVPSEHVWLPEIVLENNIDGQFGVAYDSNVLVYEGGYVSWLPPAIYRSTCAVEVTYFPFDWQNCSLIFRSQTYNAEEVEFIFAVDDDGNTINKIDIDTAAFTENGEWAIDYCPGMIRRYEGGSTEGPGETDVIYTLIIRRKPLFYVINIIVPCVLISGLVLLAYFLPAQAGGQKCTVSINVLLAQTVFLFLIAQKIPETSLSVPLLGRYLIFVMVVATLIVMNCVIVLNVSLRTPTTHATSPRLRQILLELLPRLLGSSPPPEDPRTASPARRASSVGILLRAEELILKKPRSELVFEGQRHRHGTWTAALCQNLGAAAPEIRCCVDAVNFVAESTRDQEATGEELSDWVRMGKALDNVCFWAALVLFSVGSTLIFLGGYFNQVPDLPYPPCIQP

α7 nAChR = target: T2, α7 nAChR (Homo sapiens, UniProt P36544); experiment: Ca2+ mobilization (agonist test) in SH-SY5Y cells; format: cell-based
T2 construct: SH-SY5Y cells endogenously expressing α7 nAChR; host or cells: SH-SY5Y
T2 sequence (P36544 23-502): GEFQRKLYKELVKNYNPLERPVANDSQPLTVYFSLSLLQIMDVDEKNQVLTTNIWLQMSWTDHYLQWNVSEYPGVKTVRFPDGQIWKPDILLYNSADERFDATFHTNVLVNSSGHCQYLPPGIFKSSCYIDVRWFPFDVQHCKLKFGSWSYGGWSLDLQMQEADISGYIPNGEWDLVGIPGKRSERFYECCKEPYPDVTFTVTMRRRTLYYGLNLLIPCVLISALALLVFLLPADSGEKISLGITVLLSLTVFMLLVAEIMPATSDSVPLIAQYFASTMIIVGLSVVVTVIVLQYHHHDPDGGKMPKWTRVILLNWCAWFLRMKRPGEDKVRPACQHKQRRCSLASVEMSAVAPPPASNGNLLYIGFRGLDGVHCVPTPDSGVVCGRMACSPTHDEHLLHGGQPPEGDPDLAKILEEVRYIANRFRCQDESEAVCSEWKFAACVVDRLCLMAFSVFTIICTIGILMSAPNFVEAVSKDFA
Description: Cells were cultured for two days at 37 °C on black 96-well plates. Immediately before the experiments, cells were incubated with […] Fluo-4AM ester reagent and 1.25 mM probenecid (organic anion transporter inhibitor) for 1 h at room temperature. After the incubation, the cells were washed out with the extracellular solution (140 mM NaCl, 2 mM CaCl2, 2.8 mM KCl, 4 mM MgCl2, 20 mM HEPES, 10 mM glucose; pH 7.4). The last washout was supplied with 10 uM α7 nAChR positive allosteric modulator PNU 120596 and tested compound. The excitation of Fluo-4 achieved at 485 nm and fluorescence registered at 535 nm using Hidex Sense Beta Plus (Turku, Finland) multi-well plate fluorimeter. The calcium rise amplitude was measured from the base level of each well.

human erythrocyte AChE [3] = target: T3, human erythrocyte AChE (Homo sapiens, UniProt P22303); experiment: Hydrolysis of the substance by AChE (HPLC); format: in vitro ADME; conditions: 1 mM substance, 0.02 U/mL enzyme, pH 7.5, 25 °C, 40 min
T3 sequence (P22303 32-617 isoform P22303-2 limits assumed): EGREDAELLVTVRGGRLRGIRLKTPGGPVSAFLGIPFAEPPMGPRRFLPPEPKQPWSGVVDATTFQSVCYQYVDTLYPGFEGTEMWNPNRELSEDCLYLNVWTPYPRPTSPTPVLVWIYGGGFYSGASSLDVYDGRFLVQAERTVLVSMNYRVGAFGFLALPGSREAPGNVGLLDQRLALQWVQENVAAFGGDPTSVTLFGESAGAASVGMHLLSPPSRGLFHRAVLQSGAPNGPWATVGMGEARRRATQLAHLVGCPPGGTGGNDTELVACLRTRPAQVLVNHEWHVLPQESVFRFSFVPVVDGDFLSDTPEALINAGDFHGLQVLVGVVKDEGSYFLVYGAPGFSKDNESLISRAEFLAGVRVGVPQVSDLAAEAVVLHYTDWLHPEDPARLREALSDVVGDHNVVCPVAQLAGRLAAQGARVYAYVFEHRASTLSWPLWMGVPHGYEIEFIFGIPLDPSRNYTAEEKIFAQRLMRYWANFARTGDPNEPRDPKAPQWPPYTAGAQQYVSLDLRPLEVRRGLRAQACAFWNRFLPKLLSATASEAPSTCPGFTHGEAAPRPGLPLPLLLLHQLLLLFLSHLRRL
Description: (§1) AChE and BChE hydrolysis of AA-CHOL was determined in 100 mM phosphate buffer, pH 7.5 at 25 °C, the AA-CHOL concentration was 1 mM, the incubation time was 40 min. The enzyme concentrations were 0.02 U/mL in the sample. The reverse phase HPLC method was used to estimate the hydrolysis of AA-CHOL. As a control, acetylthiocholine iodide (ATCh) hydrolysis was determined in the same conditions.

equine serum BChE [4] = target: T4, equine serum BChE (Equus caballus, UniProt P81908); experiment: Hydrolysis of the substance by BChE (HPLC); format: in vitro ADME, horse; conditions: 1 mM substance, 0.02 U/mL enzyme, pH 7.5, 25 °C
T4 sequence (P81908 whole entry): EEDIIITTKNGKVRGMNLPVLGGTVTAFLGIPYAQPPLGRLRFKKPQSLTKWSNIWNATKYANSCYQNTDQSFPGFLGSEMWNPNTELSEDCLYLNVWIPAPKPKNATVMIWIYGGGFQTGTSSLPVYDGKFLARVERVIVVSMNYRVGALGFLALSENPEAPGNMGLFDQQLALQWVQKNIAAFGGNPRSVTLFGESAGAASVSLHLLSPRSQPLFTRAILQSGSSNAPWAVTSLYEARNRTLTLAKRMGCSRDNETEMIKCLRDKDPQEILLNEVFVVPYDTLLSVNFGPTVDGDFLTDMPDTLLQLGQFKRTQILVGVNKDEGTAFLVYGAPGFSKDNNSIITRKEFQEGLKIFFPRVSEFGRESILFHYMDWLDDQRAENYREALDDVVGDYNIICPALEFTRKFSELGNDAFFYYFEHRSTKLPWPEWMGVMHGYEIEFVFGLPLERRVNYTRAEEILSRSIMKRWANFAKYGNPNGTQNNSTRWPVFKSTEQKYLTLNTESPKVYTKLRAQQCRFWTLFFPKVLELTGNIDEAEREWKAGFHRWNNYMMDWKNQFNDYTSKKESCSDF
Description: as §1

human erythrocyte AChE [5] = target: T3, human erythrocyte AChE; experiment: biochemical; conditions: for IC50: 10 min preincubation, ATCh 1 mM, N = 11, read-out: AChE IC50, inhibition of ATCh hydrolysis
α1β3γ2 GABAAR = target: T5, α1β3γ2 GABAAR (Mus musculus, UniProt P62812+P63080); experiment: Electrophysiology, GABA-evoked currents in Xenopus oocytes; format: cell-based; conditions: up to a concentration of 10 μM
T5 construct: expressed in transfected cells; host or cells: Xenopus oocytes, cDNA in PCI vector
T5 sequence (P62812 28-455): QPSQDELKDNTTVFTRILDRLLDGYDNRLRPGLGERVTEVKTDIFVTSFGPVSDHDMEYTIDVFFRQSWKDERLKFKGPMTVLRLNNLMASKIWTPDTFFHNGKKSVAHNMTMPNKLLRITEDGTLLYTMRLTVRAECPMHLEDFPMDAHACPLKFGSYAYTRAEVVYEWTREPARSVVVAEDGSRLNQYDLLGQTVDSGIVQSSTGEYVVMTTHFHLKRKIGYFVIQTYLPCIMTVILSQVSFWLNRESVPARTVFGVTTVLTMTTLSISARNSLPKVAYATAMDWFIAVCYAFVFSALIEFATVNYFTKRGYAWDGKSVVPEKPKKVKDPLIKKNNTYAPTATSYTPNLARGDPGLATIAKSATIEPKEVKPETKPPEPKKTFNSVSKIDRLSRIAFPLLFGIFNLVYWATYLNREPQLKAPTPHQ
T5 sequence (P63080 26-473): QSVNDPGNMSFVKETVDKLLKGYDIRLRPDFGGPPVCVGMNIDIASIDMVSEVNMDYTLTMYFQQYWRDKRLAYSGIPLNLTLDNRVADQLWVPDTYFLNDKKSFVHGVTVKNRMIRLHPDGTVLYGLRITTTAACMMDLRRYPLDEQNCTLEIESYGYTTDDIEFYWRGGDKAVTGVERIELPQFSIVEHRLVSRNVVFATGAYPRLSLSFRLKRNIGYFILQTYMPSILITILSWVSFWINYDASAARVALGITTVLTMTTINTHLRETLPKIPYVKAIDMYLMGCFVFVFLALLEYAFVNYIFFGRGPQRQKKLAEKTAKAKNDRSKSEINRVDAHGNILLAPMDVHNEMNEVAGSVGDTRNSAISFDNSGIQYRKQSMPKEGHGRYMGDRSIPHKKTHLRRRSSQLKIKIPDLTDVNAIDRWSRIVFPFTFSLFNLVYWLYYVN
T5 sequence (P22723 39-474 partner): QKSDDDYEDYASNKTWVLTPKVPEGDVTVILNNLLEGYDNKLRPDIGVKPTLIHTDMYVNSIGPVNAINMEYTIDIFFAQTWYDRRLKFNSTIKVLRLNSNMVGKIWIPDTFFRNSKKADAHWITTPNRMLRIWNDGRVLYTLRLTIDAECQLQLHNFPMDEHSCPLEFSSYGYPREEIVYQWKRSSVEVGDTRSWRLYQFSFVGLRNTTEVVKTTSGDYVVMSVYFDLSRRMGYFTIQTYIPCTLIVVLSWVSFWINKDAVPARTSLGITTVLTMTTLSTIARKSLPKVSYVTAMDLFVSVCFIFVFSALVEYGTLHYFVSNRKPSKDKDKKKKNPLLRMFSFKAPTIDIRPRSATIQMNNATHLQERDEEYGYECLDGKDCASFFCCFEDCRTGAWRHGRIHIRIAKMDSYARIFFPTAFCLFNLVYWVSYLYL

equine serum BChE [6] = target: T4, equine serum BChE; experiment: biochemical; conditions: for IC50: 10 min preincubation, ATCh 1 mM, N = 11, read-out: BChE IC50, inhibition of ATCh hydrolysis
[7] = test system: mouse forelimb grip strength; experiment: In vivo myorelaxant activity, forelimb grip strength; conditions: mice
[8] = test system: sea urchin Strongylocentrotus droebachiensis and S. purpuratus embryo; set-up: method as in PMID 11443948; conditions: quenched by QX-222; cited from earlier work
A549 cells = experiment: Caspase activation and apoptosis staining in A549 cells; format: cell-based; conditions: A549, 150 μM

Compound: CCN1C[C@]2(COC(=O)c3ccccc3N3C(=O)C[C@H](C)C3=O)CC[C@H](OC)[C@@]34[C@@H]5C[C@H]6[C@H](OC)[C@@H]5[C@](O)(C[C@@H]6OC)[C@@](O)([C@@H](OC)[C@H]23)[C@@H]14 [methyllycaconitine, reference compound]
- effect on A549 proliferation (A549 lung cancer cells [1]; up to the concentration of 10 μM): did not affect
- effect on proliferation of the A549 cells (A549 lung cancer cells [2]): inhibits the proliferation

Compound: CCCCC/C=C\C/C=C\C/C=C\C/C=C\CCCC(=O)OCC[N+](C)(C)C [AA-CHOL, Arachidonoylcholine]
- IC50 (mouse muscle nAChR): 3.16 ± 0.26 µM
- induction of rise in intracellular Ca2+ (agonistic properties) (α7 nAChR): showed no agonistic properties
- decrease of A549 viability (A549 lung cancer cells [1]): 10%
- decrease of cell viability, dose-dependent, maximum (A549 lung cancer cells [1]): up to 45%
- hydrolysis by AChE (human erythrocyte AChE [3]): not hydrolyzed
- hydrolysis by BChE (equine serum BChE [4]; during 40 min): up to 30%
- IC50 (human erythrocyte AChE [5]): 90 ± 1 µM
- type of AChE inhibition (human erythrocyte AChE [5]; steady-state kinetics): mixed type mechanism; also recorded: mixed-type inhibition
- αKi (noncompetitive component), AChE (human erythrocyte AChE [5]; steady-state, Lineweaver-Burk): 51.4 ± 4.1 µM
- Ki (human erythrocyte AChE [5]; steady-state, Lineweaver-Burk, read-out: Ki (competitive component), AChE): 16.7 ± 1.5 µM
- functional inhibition of α1β3γ2 GABAAR (α1β3γ2 GABAAR): no functional inhibition
- IC50 (equine serum BChE [6]): 170 ± 16 µM
- type of BChE inhibition (equine serum BChE [6]; steady-state kinetics): mixed type mechanism; also recorded: mixed-type inhibition
- αKi (noncompetitive component), BChE (equine serum BChE [6]; steady-state, Lineweaver-Burk): 214 ± 17 µM
- Ki (equine serum BChE [6]; steady-state, Lineweaver-Burk, read-out: Ki (competitive component), BChE): 70.5 ± 6.3 µM
- muscle relaxant effect, grip strength vs control ([7]; injection into front paws (intramuscular) 0.5, 1 and 4 mg/kg, 15 min to 4 h): no differences from the control group; also recorded: no difference from the control; also recorded: does not produce a significant muscle relaxation
- muscle relaxant effect, grip strength vs control ([7]; subcutaneous injection 10 and 30 mg/kg, up to 240 min): No differences with the respective controls; also recorded: no substance activity
- effect on sea urchin larva [8]: dose-dependently induced the larva immobilization and cell lysis

Compound: CC(=O)SCC[N+](C)(C)C.[I-] [ATCh, acetylthiocholine iodide, reference compound]
- hydrolysis by AChE (human erythrocyte AChE [3]): fully hydrolyzed
- hydrolysis by BChE (equine serum BChE [4]; 40 min): fully hydrolyzed

Compound: CN1CCC[C@H]1c1cccnc1 [Nicotine, reference compound]
- effect on A549 proliferation (A549 lung cancer cells [1]; 15 μM): slightly decreased
- effect on the cytotoxicity of Ol-CHOL (A549 lung cancer cells [1]; A549, 90 or 100 μM of Ol-CHOL): did not affect the cytotoxicity

Compound: CCCCC/C=C\C/C=C\CCCCCCCC(=O)OCC[N+](C)(C)C [Ln-CHOL]
- induction of rise in intracellular Ca2+ (agonistic properties) (α7 nAChR): showed no agonistic properties
- decrease of A549 viability (A549 lung cancer cells [1]): 10%
- decrease of cell viability, dose-dependent, maximum (A549 lung cancer cells [1]): up to 45%
- AChE inhibitory activity (human erythrocyte AChE [5]): Neither Ln-CHOL nor DHA-CHOL had noticeable inhibitory activity
- IC50 (human erythrocyte AChE [5]): > 300 µM
- IC50 (equine serum BChE [6]): > 300 µM

Compound: CCCCCCCC/C=C\CCCCCCCC(=O)OCC[N+](C)(C)C [Ol-CHOL]
- phosphatidylserine exposure on the membrane (A549 cells): phosphatidylserine exposure on the membrane
- caspase 3 activation (A549 cells; 5 h): activation
- caspase 8 activation (A549 cells; 5 h): not caspase 8 activation
- caspase 9 activation (A549 cells; 5 h): activation
- decrease of A549 viability (A549 lung cancer cells [1]): 45%
- decrease of cell viability, dose-dependent, maximum (A549 lung cancer cells [1]): up to 45%

Compound: CC/C=C\C/C=C\C/C=C\C/C=C\C/C=C\C/C=C\CCC(=O)OCC[N+](C)(C)C [DHA-CHOL, docosahexaenoylcholine]
- induction of rise in intracellular Ca2+ (agonistic properties) (α7 nAChR): showed no agonistic properties
- decrease of A549 viability (A549 lung cancer cells [1]): inactive
- AChE inhibitory activity (human erythrocyte AChE [5]): Neither Ln-CHOL nor DHA-CHOL had noticeable inhibitory activity
- IC50 (human erythrocyte AChE [5]): > 300 µM
- IC50 (equine serum BChE [6]): > 300 µM
- effect on sea urchin larva [8]: dose-dependently induced the larva immobilization and cell lysis
